Source: US20260285850A1, “SUBSTITUTED OXAZOLIDINONES AND IMIDAZOLINONES AS HERBICIDES” (FMC CORPORATION, priority 2023, published 2026)

Experiments:
Assay type in all cases: in vivo
[1] = tested on: horseweed (Erigeron canadensis); test: Test A postemergence application, visual injury rating 0-100; conditions: Postemergence, 10 days, 0 is no effect, 100 is complete control
In short: (§1)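 Plants in a loam and sand soil blend were treated with each test chemical, in a non-phytotoxic solvent system including surfactant, either sprayed on seeded soil before emergence or applied after emergence at the one- to two-leaf stage. Ten days later in the greenhouse, plants were compared with untreated controls and visually rated from 0 (no effect) to 100 (complete control).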

[2] = tested on: barnyardgrass (Echinochloa crus-galli); test: as above; conditions: Postemergence, 10 days, 0 is no effect, 100 is complete control
In short: as §1

[3] = tested on: palmer (palmer amaranth, palmer pigweed, Amaranthus palmeri); test: as above; conditions: Postemergence, 10 days, 0 is no effect, 100 is complete control
In short: as §1

[4] = tested on: soybean (Glycine max); test: as above; conditions: Postemergence, 10 days, 0 is no effect, 100 is complete control
In short: as §1

[5] = tested on: wheat (Triticum aestivum); test: as above; conditions: Postemergence, 10 days, 0 is no effect, 100 is complete control
In short: as §1

[6] = tested on: ryegrass, Italian (italian ryegrass, Lolium multiflorum); test: as above; conditions: Postemergence, 10 days, 0 is no effect, 100 is complete control
In short: as §1

[7] = tested on: ragweed (common ragweed, Ambrosia artemisiifolia); test: as above; conditions: Postemergence, 10 days, 0 is no effect, 100 is complete control
In short: as §1

[8] = tested on: blackgrass (Alopecurus myosuroides); test: as above; conditions: Postemergence, 10 days, 0 is no effect, 100 is complete control
In short: as §1

[9] = tested on: galium (catchweed bedstraw, Galium aparine); test: as above; conditions: Postemergence, 10 days, 0 is no effect, 100 is complete control
In short: as §1

[10] = tested on: green foxtail (Setaria viridis); test: as above; conditions: Postemergence, 10 days, 0 is no effect, 100 is complete control
In short: as §1

[11] = tested on: oat, wild (wild oat, Avena fatua); test: as above; conditions: Postemergence, 10 days, 0 is no effect, 100 is complete control
In short: as §1

[12] = tested on: corn (Zea mays); test: as above; conditions: Postemergence, 10 days, 0 is no effect, 100 is complete control
In short: as §1

[13] = tested on: kochia (Bassia scoparia); test: as above; conditions: Postemergence, 10 days, 0 is no effect, 100 is complete control
In short: as §1

[14] = tested on: barnyardgrass (Echinochloa crusgalli); test: Test B flooded paddy test, visual plant response rating 0-100; conditions: 250 g ai/ha, Flood, applied to paddy water, evaluated after 13 days
In short: (§2)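 Visual scores versus untreated controls were recorded 13 days after treatment of greenhouse-held plants. At the 2-leaf stage, pots were flooded 3 cm above the soil surface and compounds added straight to the water.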

[15] = tested on: ducksalad (Heteranthera limosa); test: as above; conditions: 250 g ai/ha, Flood, applied to paddy water, evaluated after 13 days
In short: as §2

[16] = tested on: sedge, umbrella (small-flower umbrella sedge, Cyperus difformis); test: as above; conditions: 250 g ai/ha, Flood, applied to paddy water, evaluated after 13 days
In short: as §2

[17] = tested on: rice (Oryza sativa); test: as above; conditions: 250 g ai/ha, Flood, applied to paddy water, evaluated after 13 days
In short: as §2

[18] = tested on: barnyardgrass (Echinochloa crus-galli); test: Test A preemergence soil spray, visual injury rating 0-100; conditions: 10 days, 0 = no effect, 100 = complete control
In short: as §1

[19] = tested on: palmer (palmer amaranth, palmer pigweed, Amaranthus palmeri); test: as above; conditions: 10 days, 0 = no effect, 100 = complete control
In short: as §1

[20] = tested on: soybean (Glycine max); test: as above; conditions: 10 days, 0 = no effect, 100 = complete control
In short: as §1

[21] = tested on: wheat (Triticum aestivum); test: as above; conditions: 10 days, 0 = no effect, 100 = complete control
In short: as §1

[22] = tested on: ryegrass, Italian (italian ryegrass, Lolium multiflorum); test: as above; conditions: 10 days, 0 = no effect, 100 = complete control
In short: as §1

[23] = tested on: ragweed (common ragweed, Ambrosia artemisiifolia); test: as above; conditions: 10 days, 0 = no effect, 100 = complete control
In short: as §1

[24] = tested on: blackgrass (Alopecurus myosuroides); test: as above; conditions: 10 days, 0 = no effect, 100 = complete control
In short: as §1

[25] = tested on: green foxtail (Setaria viridis); test: as above; conditions: 10 days, 0 = no effect, 100 = complete control
In short: as §1

[26] = tested on: oat, wild (wild oat, Avena fatua); test: as above; conditions: 10 days, 0 = no effect, 100 = complete control
In short: as §1

[27] = tested on: corn (Zea mays); test: as above; conditions: 10 days, 0 = no effect, 100 = complete control
In short: as §1

[28] = tested on: kochia (Bassia scoparia); test: as above; conditions: 10 days, 0 = no effect, 100 = complete control
In short: as §1

COC(=O)C1C=CC(NC(=O)C2(C)CN(c3cc(Cl)cc(Cl)c3)C(=O)O2)C1 (stereo not shown) [Compound 42]
Horseweed plant response rating (0 to 100 scale) ([1]; 125 g ai/ha): 80 | Horseweed plant response rating (0 to 100 scale) ([1]; 500 g ai/ha): 90 | Barnyardgrass plant response rating (0 to 100 scale) ([2]; 125 g ai/ha): 100 | Barnyardgrass plant response rating (0 to 100 scale) ([2]; 500 g ai/ha): 100 | Amaranth, Palmer / Pigweed, Palmer plant response rating (0 to 100 scale) ([3]; 125 g ai/ha): 100 | Amaranth, Palmer / Pigweed, Palmer plant response rating (0 to 100 scale) ([3]; 500 g ai/ha): 100 | Soybean plant response rating (0 to 100 scale) ([4]; 125 g ai/ha): 90 | Soybean plant response rating (0 to 100 scale) ([4]; 500 g ai/ha): 80 | Wheat plant response rating (0 to 100 scale) ([5]; 125 g ai/ha): 90 | Wheat plant response rating (0 to 100 scale) ([5]; 500 g ai/ha): 90 | Ryegrass, Italian plant response rating (0 to 100 scale) ([6]; 125 g ai/ha): 90 | Ryegrass, Italian plant response rating (0 to 100 scale) ([6]; 500 g ai/ha): 90 | Ragweed plant response rating (0 to 100 scale) ([7]; 125 g ai/ha): 70 | Ragweed plant response rating (0 to 100 scale) ([7]; 500 g ai/ha): 80 | Blackgrass plant response rating (0 to 100 scale) ([8]; 125 g ai/ha): 100 | Blackgrass plant response rating (0 to 100 scale) ([8]; 500 g ai/ha): 100 | Galium plant response rating (0 to 100 scale) ([9]; 125 g ai/ha): 70 | Galium plant response rating (0 to 100 scale) ([9]; 500 g ai/ha): 80 | Foxtail, Green plant response rating (0 to 100 scale) ([10]; 125 g ai/ha): 90 | Foxtail, Green plant response rating (0 to 100 scale) ([10]; 500 g ai/ha): 90 | Oat, Wild plant response rating (0 to 100 scale) ([11]; 125 g ai/ha): 90 | Oat, Wild plant response rating (0 to 100 scale) ([11]; 500 g ai/ha): 90 | Corn plant response rating (0 to 100 scale) ([12]; 125 g ai/ha): 100 | Corn plant response rating (0 to 100 scale) ([12]; 500 g ai/ha): 100 | Kochia plant response rating (0 to 100 scale) ([13]; 125 g ai/ha): 80 | Kochia plant response rating (0 to 100 scale) ([13]; 500 g ai/ha): 80 | Plant response rating, Barnyardgrass (0 to 100 scale, 0 is no effect and 100 is complete control) [14]: 95 | Plant response rating, Ducksalad (0 to 100 scale, 0 is no effect and 100 is complete control) [15]: 90 | Plant response rating, Sedge, Umbrella (0 to 100 scale, 0 is no effect and 100 is complete control) [16]: 95 | Plant response rating, Rice (0 to 100 scale, 0 is no effect and 100 is complete control) [17]: 15 | Barnyardgrass plant response rating (0 to 100 scale) ([18]; 125 g ai/ha): 100 | Barnyardgrass plant response rating (0 to 100 scale) ([18]; 500 g ai/ha): 100 | Amaranth, Palmer plant response rating (0 to 100 scale) ([19]; 125 g ai/ha): 100 | Amaranth, Palmer plant response rating (0 to 100 scale) ([19]; 500 g ai/ha): 100 | Soybean plant response rating (0 to 100 scale) ([20]; 125 g ai/ha): 40 | Soybean plant response rating (0 to 100 scale) ([20]; 500 g ai/ha): 70 | Wheat plant response rating (0 to 100 scale) ([21]; 125 g ai/ha): 90 | Wheat plant response rating (0 to 100 scale) ([21]; 500 g ai/ha): 90 | Ryegrass, Italian plant response rating (0 to 100 scale) ([22]; 125 g ai/ha): 90 | Ryegrass, Italian plant response rating (0 to 100 scale) ([22]; 500 g ai/ha): 100 | Ragweed plant response rating (0 to 100 scale) ([23]; 125 g ai/ha): 20 | Ragweed plant response rating (0 to 100 scale) ([23]; 500 g ai/ha): 80 | Blackgrass plant response rating (0 to 100 scale) ([24]; 125 g ai/ha): 90 | Blackgrass plant response rating (0 to 100 scale) ([24]; 500 g ai/ha): 100 | Foxtail, Green plant response rating (0 to 100 scale) ([25]; 125 g ai/ha): 100 | Foxtail, Green plant response rating (0 to 100 scale) ([25]; 500 g ai/ha): 100 | Oat, Wild plant response rating (0 to 100 scale) ([26]; 125 g ai/ha): 90 | Oat, Wild plant response rating (0 to 100 scale) ([26]; 500 g ai/ha): 90 | Corn plant response rating (0 to 100 scale) ([27]; 125 g ai/ha): 90 | Corn plant response rating (0 to 100 scale) ([27]; 500 g ai/ha): 90 | Kochia plant response rating (0 to 100 scale) ([28]; 125 g ai/ha): 90 | Kochia plant response rating (0 to 100 scale) ([28]; 500 g ai/ha): 90
